Laboratory results published in patent US4609725A, “Cardiac atrial peptides” (Merck & Co., Inc., priority 1984, dated 1986).
pIC50: −log10 of the molar value.

How the values were obtained:
[1] = system: serotonin contracted rat aortae; assay type: cell-based
Text: (§1) Under the conditions described above, conversion of non-iodinated ANF peptide fragment to the iodinated peptide was approximately 48%, based on the absorbance of the respective HPLC fractions and by amino acid analysis.

[2] = system: serotonin contracted rabbit aortae; assay type: cell-based
Text: as §1

CC[C@H](C)[C@@H]1NC(=O)[C@H](CCCNC(=N)N)NC(=O)[C@H](CC(=O)O)NC(=O)[C@H]([C@@H](C)CC)NC(=O)[C@H](CCCNC(=N)N)NC(=O)CNC(=O)CNC(=O)[C@H](Cc2ccccc2)NC(=O)[C@@H](NC(=O)[C@H](CO)NC(=O)[C@H](CO)NC(=O)[C@H](CCCNC(=N)N)NC(=O)[C@@H](N)CCCNC(=N)N)CSSC[C@@H](C(=O)N[C@@H](CC(N)=O)C(=O)N[C@@H](CO)C(=O)N[C@@H](Cc2ccccc2)C(=O)N[C@@H](CCCNC(=N)N)C(=O)N[C@@H](Cc2ccc(O)c(I)c2)C(=O)O)NC(=O)CNC(=O)[C@H](CC(C)C)NC(=O)CNC(=O)[C@H](CO)NC(=O)[C@H](CCC(N)=O)NC(=O)[C@H](C)NC(=O)CNC1=O [iodinated ANF peptide fragment]
pIC50 [1]: 8.98
extent of vasorelaxation ([1]; serotonin contracted rat aortae): complete vasorelaxation
pIC50 [2]: 8.78
extent of vasorelaxation ([2]; serotonin contracted rabbit aortae): complete vasorelaxation
